The values below come from patent US20240246911A1, “NOVEL T[…] METHODS OF TREATING MOOD DISORDERS” (GILGAMESH PHARMACEUTICALS INC., priority 2021, published 2024).

Where a name gives a salt, the structure may show the parent alone. Read-outs that look alike come from different tables or passages of the source.

In one test the test system is rat synaptosomes. The test is described as follows: Synaptosome 5-HT release assay. It is filed as biochemical. Particulars: for EC50: rat synaptosomes preloaded with [3H]5-HT, 10 mins. The protocol: Synaptosome 5-HT Release Assay. Synaptosome release assays were conducted according to modifications of previously described procedures (Partilla et al. (2016). Interrogating the Activity of Ligands at Monoamine Transporters in Rat Brain Synaptosomes. In Neurotransmitter Transporters (pp. 41-52). Springer.). Briefly, synaptosomes were prepared from rat brains. Male
Sprague-Dawley rats were rendered unconscious with CO2 and their brains were immediately removed. The cerebella were discarded and the whole brains (minus striatum) were placed in ice-cold 0.32 M sucrose (10 mL per brain) and gently homogenized by hand. The homogenate of each brain was centrifuged at 1,000×g at 4° C.for 10 mins and the resulting supernatant was diluted with ice-cold 0.32 M sucrose to a total volume of 10 mL to provide the synaptosome solution. […] The incubations were allowed to reach equilibrium for 2 h at 25° C. For the release reactions, 425 μL of preloaded synaptosomes were added to test tubes containing 75 μL of test drugs diluted in KPB containing 1 mg/mL BSA. After 10 mins, the release reaction was stopped using a cell harvester by rapid vacuum filtration over GF/B filter paper presoaked in wash buffer (10 mM Tris-HCl, pH 7.4, 150 mM NaCl) and the filters were washed with additional wash buffer. Filters were dried for 1 h at 60° C.and retained radioactivity was quantified using a MicroBeta 2 liquid scintillation counter. The amount of retained radioactivity was inversely proportional to the extent of release.

In another test the target is 5-HT1A receptor (Homo sapiens (Human), UniProt P08908). Put plainly: FLIPR Ca2+ flux functional assay, agonist activity at 5-HT1A. Particulars: for Emax: read-out: 5-HT1A Emax. It is filed as cell-based. Here is the method: (§1) Functional Assays at 5-HT2A, 5-HT2B, and 5-HT1A Receptors. Agonist activity at 5-HT2A, 5-HT2B, and 5-HTIA receptors was determined using a FLIPR Ca^2− flux assay at WuXi AppTec (Hong Kong) Limited according to their standard protocols. Briefly, stably transfected cells expressing the receptor of interest (HEK293 for 5-HT2A and 5-HT2B; CHO cells for 5-HT1A) were grown and plated in a 384-well plate and incubated at 37° C. and 5% CO2 overnight. A solution of 250 mM probenecid in 1 mL FLIPR assay buffer was prepared fresh. This was combined with a fluorescent dye (Fluo-4 Direct™) to make a final assay concentration of 2.5 mM. Compounds were diluted 1:3.16 for 10 points and 750 nL was added to a 384-well compound plate using ECHO along with 30 μL of assay buffer. The fluorescent dye was then added to the assay plate along with assay buffer to a final volume of 40 μL. The cell plate was incubated for 50 min at 37° C.and 5% CO2 and placed into the FLIPR Tetra along with the compound plate. 10 μL of references and compounds were then transferred from the compound plate into the cell plate and the fluorescent signal was read.

The target of a further test is 5-HT2B receptor (Homo sapiens (Human), UniProt P41595). The test is described as follows: FLIPR Ca2+ flux functional assay, agonist activity at 5-HT2B. It is filed as cell-based. The conditions noted are these: for Emax: HEK293 stably transfected cells, Ca2+ flux. Here is the method:
as §1

Test [1] concerns the target T1, 5-HT2A receptor (Homo sapiens (Human), UniProt P28223). The test is described as follows: FLIPR Ca2+ flux functional assay, agonist activity at 5-HT2A. It is filed as cell-based. Here is the method: as §1
For test [2], the target named is T1, 5-HT2A receptor. The test is described as follows: 5-HT2A receptor radioligand binding with [3H]ketanserin. The conditions noted are these: HEK293 stable cell line, 1 nM [3H]ketanserin, 1 h, 25° C.
For test [3], the system named is rat forced swim test (FST). Put plainly: Forced swim test in rats. It is filed as in vivo. Particulars: s.c., 23.5-h pre-treatment time. Here is the method: Compound 1 is tested for antidepressant-like activity in the rat forced swim test (FST). The compound induces antidepressant-like effects with a 23.5-h pre-treatment time.
Animals. Male Sprague Dawley rats, aged 9-10 weeks, are used in this experiment. Animals are housed in groups of 2 under controlled temperature (22+3°C.) and relative humidity (30-70%) conditions, with 12-hour light/dark cycles, and with ad libitum food and water. This study is carried out in strict accordance with the requirements of the Committee for the Purpose of Control and Supervision of Experiments on Animals (CPCSEA), India. All efforts are made to minimize suffering.
Drugs and Drug Administration. Test compound, saline vehicle, and the positive control desipramine are administered subcutaneously (s.c.), with doses calculated based on the free base. Normal saline is used as the vehicle (or acidified saline in the case of free bases). All compounds are administered at a volume of 5 mL/kg. Test compound and vehicle are administered 0.5 h after the start of the training swim (Swim 1) and 23.5 h before the test swim (Swim 2). […]
Behavioral scoring is conducted by observers who are blind to the treatment groups. Animals are continuously observed during Swim 2 and the total time spent engaging in the following behaviors is recorded: immobile, swimming, and climbing. […]

The mark [4] stands for this setting: HEK293 stably transfected cells, Ca2+ flux.

5-HT2B receptor, sequence (P41595 whole entry, looked up): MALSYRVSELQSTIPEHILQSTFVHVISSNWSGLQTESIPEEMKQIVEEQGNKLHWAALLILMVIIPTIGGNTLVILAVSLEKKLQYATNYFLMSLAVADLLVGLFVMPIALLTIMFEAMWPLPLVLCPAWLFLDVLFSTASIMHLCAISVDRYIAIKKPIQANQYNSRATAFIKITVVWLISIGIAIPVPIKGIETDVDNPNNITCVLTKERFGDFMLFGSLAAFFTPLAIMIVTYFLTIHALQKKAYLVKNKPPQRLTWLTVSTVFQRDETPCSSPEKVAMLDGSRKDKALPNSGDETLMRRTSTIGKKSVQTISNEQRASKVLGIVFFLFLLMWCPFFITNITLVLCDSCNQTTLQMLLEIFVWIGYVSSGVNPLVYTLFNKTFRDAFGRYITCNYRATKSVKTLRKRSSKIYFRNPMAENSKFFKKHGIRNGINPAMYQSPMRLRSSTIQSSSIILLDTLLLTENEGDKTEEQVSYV

Consider `CN(C)CCc1c[nH]c2ccc(OC(F)(F)F)cc12` [Compound 1, N,N-dimethyl-2-(5-(trifluoromethoxy)-1/-indol-3-yl)ethan-1-amine hydrochloride], for which the “5-HT releaser potency compared to 5-MeO-DMT (in words)” value in the test with rat synaptosomes (rat synaptosomes) is on record as “much more potent releaser of 5-HT”. Moreover, the EC50 amounted to 192 nM with rat synaptosomes, 6330 nM on 5-HT1A receptor, 762 nM at 5-HT2B receptor and 127 nM at 5-HT2A receptor [1]. The “% Release @ Max Dose (10 μM)” value in the test with rat synaptosomes (rat synaptosomes) was determined as 58.77%. The Emax on 5-HT1A receptor stood at 81.8%; at 5-HT2B receptor, 19.6%; on 5-HT2A receptor [1] (setting [4]), 78.9%. Also, the “agonist activity at the 5-HT2A receptor (in words)” value on 5-HT2A receptor [1] (Ca2+ flux) was “potent agonist activity”. Further, at 5-HT2A receptor [1] (Ca2+ flux), the “agonist type at the 5-HT2A receptor (in words)” value is “partial agonist rather than a full agonist”. In addition, on 5-HT2A receptor [2], the affinity, expressed as Ki, was 890 nM. Also, the “immobility time relative to vehicle control” value in test [3] is recorded as “reduces immobility time relative to vehicle control in a dose-dependent manner”.
In the case of `COc1ccc2[nH]cc(CCN(C)C)c2c1` [Compound 5-MeO-DMT, 5-methoxy-N,N-dimethyltryptamine, reference compound], the EC50 in the test on rat synaptosomes was found to be 3950 nM. In the test on rat synaptosomes (rat synaptosomes), the “% Release @ Max Dose (10 μM)” value is 54.63%. Further, the Emax came to 100% at 5-HT1A receptor, 17.6% on 5-HT2B receptor and 106% at 5-HT2A receptor [1] (setting [4]).
For `CN(C)CCc1c[nH]c2ccccc12` [DMT, N,N-dimethyltryptamine, reference compound], the EC50 turned out to be 80.8 nM with rat synaptosomes and 22.2 nM on 5-HT2A receptor [1] (HEK293 stably transfected cells, Ca2+ flux, read-out: 5-HT2A EC50). Besides, the “% Release @ Max Dose (10 μM)” value with rat synaptosomes (rat synaptosomes) came out at 80.77%. For the same compound, the figures for the Emax at 5-HT1A receptor, on 5-HT2B receptor and at 5-HT2A receptor [1] (setting [4]) were 70.2%, 42.8% and 93.4%, respectively. Besides, the Ki at 5-HT2A receptor [2] turned out to be 416 nM.
